Experimental data as given in PMC7026418, “The kinase polypharmacology landscape of clinical PARP inhibitors” (Scientific Reports, 2020).
Read-outs that look alike come from different tables or passages of the source. Values belong to the compound of their own block, whether it stands above or below them.

Legend:
Assay in all cases: biochemical
Set-up in all cases: DiscoveRx KINOMEscan active site-directed competition binding; percent of control kinase bound to immobilised ligand
CAMK2B = CAMK2B (Homo sapiens, UniProt Q13554)
S6K1 = molecular target: T1, S6K1 (Homo sapiens, UniProt P23443)
T1 construct: gene RPS6KB1

DCAMKL2 = molecular target: T2, DCAMKL2 (Homo sapiens, UniProt Q8N568)
T2 construct: gene DCLK2
T2 sequence (Q8N568 1-766): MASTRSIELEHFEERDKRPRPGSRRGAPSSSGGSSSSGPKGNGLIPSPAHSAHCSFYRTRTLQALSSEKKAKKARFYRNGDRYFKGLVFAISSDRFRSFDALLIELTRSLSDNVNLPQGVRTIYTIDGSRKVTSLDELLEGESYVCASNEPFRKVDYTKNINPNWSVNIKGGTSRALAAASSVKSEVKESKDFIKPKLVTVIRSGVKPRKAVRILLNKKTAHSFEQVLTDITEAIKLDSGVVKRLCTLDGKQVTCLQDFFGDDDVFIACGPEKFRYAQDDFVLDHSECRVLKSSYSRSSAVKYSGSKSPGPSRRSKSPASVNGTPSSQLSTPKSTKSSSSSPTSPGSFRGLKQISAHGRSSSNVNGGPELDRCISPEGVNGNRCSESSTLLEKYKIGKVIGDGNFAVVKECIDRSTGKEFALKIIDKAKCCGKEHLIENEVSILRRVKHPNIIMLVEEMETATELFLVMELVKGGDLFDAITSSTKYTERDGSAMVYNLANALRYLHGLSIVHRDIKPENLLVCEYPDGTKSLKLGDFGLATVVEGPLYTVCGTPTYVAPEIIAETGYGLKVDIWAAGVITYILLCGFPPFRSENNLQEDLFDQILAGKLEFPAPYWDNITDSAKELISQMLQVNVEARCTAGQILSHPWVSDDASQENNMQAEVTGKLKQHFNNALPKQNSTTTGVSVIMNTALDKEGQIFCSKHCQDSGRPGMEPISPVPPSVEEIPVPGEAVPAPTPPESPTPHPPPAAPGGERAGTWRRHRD

IKK-beta = molecular target: T3, IKK-beta (Homo sapiens, UniProt O14920)
T3 construct: gene IKBKB
T3 sequence (O14920 1-756): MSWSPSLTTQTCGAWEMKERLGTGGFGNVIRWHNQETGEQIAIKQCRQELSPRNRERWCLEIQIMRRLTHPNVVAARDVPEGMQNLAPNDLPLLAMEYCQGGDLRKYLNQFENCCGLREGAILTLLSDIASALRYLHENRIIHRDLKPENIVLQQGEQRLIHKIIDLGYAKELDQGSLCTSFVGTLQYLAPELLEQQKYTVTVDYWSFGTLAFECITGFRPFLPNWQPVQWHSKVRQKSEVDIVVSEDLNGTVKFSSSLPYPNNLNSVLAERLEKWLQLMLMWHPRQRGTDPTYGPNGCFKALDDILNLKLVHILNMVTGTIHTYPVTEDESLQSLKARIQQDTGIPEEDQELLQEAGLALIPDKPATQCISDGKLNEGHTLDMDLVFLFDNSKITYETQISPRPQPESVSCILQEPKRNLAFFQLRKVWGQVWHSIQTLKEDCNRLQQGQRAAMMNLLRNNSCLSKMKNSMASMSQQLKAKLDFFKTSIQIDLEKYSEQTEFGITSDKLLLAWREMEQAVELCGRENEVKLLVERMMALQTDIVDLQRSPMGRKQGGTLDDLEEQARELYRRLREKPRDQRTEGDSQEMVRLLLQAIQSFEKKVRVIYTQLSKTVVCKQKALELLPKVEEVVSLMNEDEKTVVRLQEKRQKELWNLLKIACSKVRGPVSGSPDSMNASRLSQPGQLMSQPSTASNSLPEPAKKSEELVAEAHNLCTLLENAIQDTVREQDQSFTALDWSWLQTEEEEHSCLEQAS

TNK1 = molecular target: T4, TNK1 (Homo sapiens, UniProt Q13470)
T4 sequence (Q13470 1-666): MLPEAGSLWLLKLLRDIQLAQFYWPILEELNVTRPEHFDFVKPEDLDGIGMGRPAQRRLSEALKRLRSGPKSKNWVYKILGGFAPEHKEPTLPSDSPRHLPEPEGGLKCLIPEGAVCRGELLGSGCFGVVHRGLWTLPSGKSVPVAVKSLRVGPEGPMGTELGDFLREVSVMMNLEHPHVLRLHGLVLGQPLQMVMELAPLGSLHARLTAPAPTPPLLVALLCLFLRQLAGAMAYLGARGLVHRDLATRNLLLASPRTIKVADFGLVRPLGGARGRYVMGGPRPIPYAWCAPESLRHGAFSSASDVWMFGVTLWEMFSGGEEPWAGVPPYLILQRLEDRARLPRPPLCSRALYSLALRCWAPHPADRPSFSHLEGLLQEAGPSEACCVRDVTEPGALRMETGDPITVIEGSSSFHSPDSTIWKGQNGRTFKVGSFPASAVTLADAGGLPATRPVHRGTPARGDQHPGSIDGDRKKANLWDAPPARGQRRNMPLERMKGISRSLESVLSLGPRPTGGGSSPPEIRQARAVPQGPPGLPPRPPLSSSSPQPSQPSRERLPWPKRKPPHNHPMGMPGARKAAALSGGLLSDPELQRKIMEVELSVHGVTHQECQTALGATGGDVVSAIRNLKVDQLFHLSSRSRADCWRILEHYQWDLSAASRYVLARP

[1] = read-out: Olaparib / %Ctrl @ 10000nM
[2] = read-out: Talazoparib (BMN 673) / %Ctrl @ 10000nM
[3] = read-out: Rucaparib / %Ctrl @ 10000nM, binding competition, % of control
[4] = read-out: Niraparib (MK-4827) / %Ctrl @ 10000nM

T1 sequence (P23443 whole entry): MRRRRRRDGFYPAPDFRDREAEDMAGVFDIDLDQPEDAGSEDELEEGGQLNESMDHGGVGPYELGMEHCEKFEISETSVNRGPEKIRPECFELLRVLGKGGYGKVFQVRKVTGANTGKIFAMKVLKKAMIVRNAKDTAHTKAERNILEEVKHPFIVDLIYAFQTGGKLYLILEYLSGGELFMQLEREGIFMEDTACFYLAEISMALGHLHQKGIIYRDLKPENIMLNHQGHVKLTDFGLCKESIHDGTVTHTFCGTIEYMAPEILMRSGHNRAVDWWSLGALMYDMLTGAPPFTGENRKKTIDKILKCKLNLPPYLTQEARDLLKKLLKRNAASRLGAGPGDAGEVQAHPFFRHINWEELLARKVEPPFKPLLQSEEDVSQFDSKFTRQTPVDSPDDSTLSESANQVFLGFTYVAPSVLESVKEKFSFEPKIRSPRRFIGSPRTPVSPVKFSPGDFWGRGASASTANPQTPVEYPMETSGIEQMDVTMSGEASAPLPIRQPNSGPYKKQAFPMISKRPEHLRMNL
Chain of CAMK2B (Q13554 whole entry): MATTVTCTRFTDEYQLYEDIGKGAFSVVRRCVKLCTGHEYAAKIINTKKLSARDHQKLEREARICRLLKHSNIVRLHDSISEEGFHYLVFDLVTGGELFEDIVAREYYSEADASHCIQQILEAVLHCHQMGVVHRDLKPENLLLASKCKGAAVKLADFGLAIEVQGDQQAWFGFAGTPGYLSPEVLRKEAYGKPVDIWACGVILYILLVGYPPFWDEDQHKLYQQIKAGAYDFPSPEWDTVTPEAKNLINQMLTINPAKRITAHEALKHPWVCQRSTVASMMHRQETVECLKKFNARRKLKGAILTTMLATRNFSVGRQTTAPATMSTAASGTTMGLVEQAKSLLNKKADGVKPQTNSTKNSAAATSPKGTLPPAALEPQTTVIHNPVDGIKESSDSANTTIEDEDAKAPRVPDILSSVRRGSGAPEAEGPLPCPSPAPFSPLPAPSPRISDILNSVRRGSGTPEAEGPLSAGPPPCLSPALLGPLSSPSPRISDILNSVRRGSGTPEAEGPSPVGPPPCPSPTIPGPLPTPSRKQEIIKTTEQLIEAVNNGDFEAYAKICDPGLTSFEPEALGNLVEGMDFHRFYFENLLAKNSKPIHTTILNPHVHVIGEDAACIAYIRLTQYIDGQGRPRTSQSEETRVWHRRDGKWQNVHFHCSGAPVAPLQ

percent of control binding at 10 µM (CAMK2B; [1]): 96%
percent of control binding at 10 µM (S6K1; [1]): 73%
percent of control binding at 10 µM (DCAMKL2; [1]): 100%
percent of control binding at 10 µM (IKK-beta; [1]): 72%
percent of control binding at 10 µM (TNK1; [1]): 95%
Compound: O=C(c1cc(Cc2n[nH]c(=O)c3ccccc23)ccc1F)N1CCN(C(=O)C2CC2)CC1 [Olaparib]

percent of control binding at 10 µM (CAMK2B; [2]): 92%
percent of control binding at 10 µM (S6K1; [2]): 62%
percent of control binding at 10 µM (DCAMKL2; [2]): 100%
percent of control binding at 10 µM (IKK-beta; [2]): 95%
percent of control binding at 10 µM (TNK1; [2]): 93%
Compound: Cn1ncnc1[C@H]1c2n[nH]c(=O)c3cc(F)cc(c23)N[C@@H]1c1ccc(F)cc1 [Talazoparib]

percent of control binding at 10 µM (CAMK2B; [3]): 86%
percent of control binding at 10 µM (S6K1; [3]): 60%
percent of control binding at 10 µM (DCAMKL2; [3]): 87%
percent of control binding at 10 µM (IKK-beta; [3]): 35%
percent of control binding at 10 µM (TNK1; [3]): 91%
Compound: CNCc1ccc(-c2[nH]c3cc(F)cc4c3c2CCNC4=O)cc1 [Rucaparib]

Compound: NC(=O)c1cccc2cn(-c3ccc([C@@H]4CCCNC4)cc3)nc12 [Niraparib]
percent of control binding at 10 µM (CAMK2B; [4]): 90%
percent of control binding at 10 µM (S6K1; [4]): 94%
percent of control binding at 10 µM (DCAMKL2; [4]): 83%
percent of control binding at 10 µM (IKK-beta; [4]): 100%
percent of control binding at 10 µM (TNK1; [4]): 56%
